Source: PMC6158189, “A pharmacological probe identifies cystathionine β-synthase as a new negative regulator for ferroptosis” (Cell Death & Disease, 2018)
Where “and” joins values, the source holds several entries; their conditions need not be identical. Equal values may be shown once. Entries after “also recorded” stand apart in the source; their conditions may differ. Read-outs that look alike come from different tables or passages of the source.

Columns and labels:
HepG2 cells = experiment: cellular cystathionine by LC/ESI-MS/MS; format: cell-based, human; conditions: 8 h, 100 μM Hcys and 100 μM Ser
Description: The effect of CH004 on the level of CTH in HepG2 cells was determined by a liquid chromatography-tandem mass spectrometry (LC/ESI-MS/MS). We followed a condition, which was previously established with LC/ESI-MS/MS[56], for quantification of CTH. […] We selected the 223.1 → 88.1 transition for the quantitative method. Briefly, after the incubation with the compounds for 8 h in the presence of 100 μM Hcys and 100 μM Ser, the HepG2 cells were lysed with liquid nitrogen. 10 μl supernatant was injected to the Ultra Performance Liquid Chromatographic system on a Zorbax XDB C18 reverse phase column (4.6 × 150 mm, temperature-controlled at 10 °C), and eluted isogradiently with a solution mixed from acetonitrile (in the presence of 0.1% formic acid) and water (0.1% formic acid) (2:98, v/v) at a flow rate of 0.4 ml/min in a diode array detector (Agilent G4212A). The Agilent 6470 UHPLC-QqQ/MS system composes of a chomatographic system (Agilent 1260 Infinity) and a Triple Quad mass spectrometer fitted with an ESI source. Data was acquired in the MRM mode using Agilent MassHunter Workstation Data Acquisition Software (revision B.04).
Figure S14. […] All images are representative of three independent experiments. […] Means ± SDs (n=2).

hCBS-FL = target: T1, hCBS-FL (Homo sapiens, UniProt P35520); experiment: CBS enzyme assay, H2S quantified by methylene blue method; format: biochemical; set-up: human CBS or hCSE full-length (CBS-FL or CSE) was subcloned into pGEX-KG, pcDNA3 or pCDH vector; GST (N); made in house; host or cells: E. coli BL21; conditions: 150 nM hCBS-FL, 200 μM SAM, 4 mM L-Cys, 4 mM D,L-Hcys, Tris-HCl pH 8.6, 80 min
T1 sequence (P35520 1-551): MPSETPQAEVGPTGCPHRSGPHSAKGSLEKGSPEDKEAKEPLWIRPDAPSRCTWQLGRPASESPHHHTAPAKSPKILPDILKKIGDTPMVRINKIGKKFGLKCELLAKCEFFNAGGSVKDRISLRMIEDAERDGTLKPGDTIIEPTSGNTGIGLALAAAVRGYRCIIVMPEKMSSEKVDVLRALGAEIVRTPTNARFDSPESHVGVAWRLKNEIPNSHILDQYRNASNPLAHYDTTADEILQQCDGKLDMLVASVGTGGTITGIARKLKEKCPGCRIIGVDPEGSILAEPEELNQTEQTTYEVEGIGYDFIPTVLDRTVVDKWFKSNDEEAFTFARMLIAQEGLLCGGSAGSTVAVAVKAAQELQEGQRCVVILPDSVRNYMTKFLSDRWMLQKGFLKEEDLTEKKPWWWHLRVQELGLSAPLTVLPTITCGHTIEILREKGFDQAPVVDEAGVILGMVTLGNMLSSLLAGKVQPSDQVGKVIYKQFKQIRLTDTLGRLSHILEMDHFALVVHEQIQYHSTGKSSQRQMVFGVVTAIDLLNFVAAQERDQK
Description: Fig. 1 CH004 inhibits the activity of hCBS in the in vitro purified enzyme assays under different assay conditions. a A scheme for the cascade enzymatic reactions catalyzed by CBS or CSE. Cth, cystathionine. b, c Inhibitory effects of CH004 on the activity of hCBS-413 (b) or hCSE (c). The enzyme activities were monitored for various concentrations of CH004 under the standard conditions (50 mM Tris-HCl, pH 8.6; “Materials and Methods” section). The result is shown as percentages of the control (DMSO, 100%). The data are shown as means ± SDS (n = 3). d The dose-dependent inhibition of CH004 on the hCBS-413 activity was measured by the tandem-well-based assay under the standard conditions except using 50 mM Hepes buffer (pH 7.4) instead of 50 mM Tris-HCl (pH 8.6). Means ± SDs (n = 3). e The dose-dependent inhibition of CH004 on the CBS activity measured by methylene blue method. […] After 80 min, the assay was stopped by added 10 μL 10% ZnAC and the generated H2S was quantified by N,N-dimethyl-p-phenylenediamine to give an absorbance at 670 nm (for details, see Materials and Methods section; ref. [53]). […]
^3The IC50 were determined for hCBS-FL by Methyl Blue method (ref. 1).

hCBS-413 = target: T2, hCBS-413 (Homo sapiens, UniProt P35520); experiment: purified hCBS-413 enzyme assay (192-tandem-well plate, H2S detected with DTNB); format: biochemical
T2 construct: hCBS-413 (a C-terminal truncated hCBS 1–413); GST (N); made in house; host or cells: E. coli BL21
T2 sequence (P35520 1-413): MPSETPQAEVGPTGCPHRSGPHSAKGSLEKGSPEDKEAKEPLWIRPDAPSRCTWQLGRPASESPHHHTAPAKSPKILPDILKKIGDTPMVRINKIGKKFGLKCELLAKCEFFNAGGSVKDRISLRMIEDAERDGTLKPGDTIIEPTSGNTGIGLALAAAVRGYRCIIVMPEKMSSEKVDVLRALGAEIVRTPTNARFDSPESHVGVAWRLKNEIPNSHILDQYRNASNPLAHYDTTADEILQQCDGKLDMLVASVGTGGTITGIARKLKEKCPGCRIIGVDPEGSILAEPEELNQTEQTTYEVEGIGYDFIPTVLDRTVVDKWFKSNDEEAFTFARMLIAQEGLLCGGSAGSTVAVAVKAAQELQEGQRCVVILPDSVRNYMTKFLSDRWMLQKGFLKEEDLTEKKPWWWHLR
Description: Fig. 1 CH004 inhibits the activity of hCBS in the in vitro purified enzyme assays under different assay conditions. a A scheme for the cascade enzymatic reactions catalyzed by CBS or CSE. Cth, cystathionine. b, c Inhibitory effects of CH004 on the activity of hCBS-413 (b) or hCSE (c). The enzyme activities were monitored for various concentrations of CH004 under the standard conditions (50 mM Tris-HCl, pH 8.6; “Materials and Methods” section). The result is shown as percentages of the control (DMSO, 100%). The data are shown as means ± SDS (n = 3). d The dose-dependent inhibition of CH004 on the hCBS-413 activity was measured by the tandem-well-based assay under the standard conditions except using 50 mM Hepes buffer (pH 7.4) instead of 50 mM Tris-HCl (pH 8.6). Means ± SDs (n = 3). e The dose-dependent inhibition of CH004 on the CBS activity measured by methylene blue method. The CBS enzyme assay was performed with a 50 μl assay buffer in an Eppendorf tube under the standard assay conditions for the 192-tandem-well based assay, i.e., 50 μl 50 mM Tris-HCl buffer (pH 8.6) containing 150 nM hCBS-FL, 200 μM S-adenosyl-L-methionine, 4 mM L-Cys and 4 mM D,L-Hcys, in the presence of 0 (DMSO control), 0.01, 0.5, 1, 5, 10 or 100 μM CH004. After 80 min, the assay was stopped by added 10 μL 10% ZnAC and the generated H2S was quantified by N,N-dimethyl-p-phenylenediamine to give an absorbance at 670 nm (for details, see Materials and Methods section; ref. [53]).
The IC50 values of CH004 for hCBS-413, hCBS-413 mutants, hCBS-FL, hCSE or hDDC were determined according to the standard assay conditions otherwise indicated.
Table S2. Inhibitory effects of CH004 on hCBS WT and mutants.

## Cn1nc(Cc2ccccc2)nc2c(=O)n(C)c(=O)nc1-2 [CH004, 3-benzyl-1,6-dimethylpyrimido[5,4-e][1,2,4]triazine-5,7(1H,6H)-dione]
HepG2 cells
  level of cystathionine (CTH): dose-dependently inhibits; also recorded: largely reduced
hCBS-FL
  IC50: 1710 nM and 1700 nM
hCBS-413; 150 nM purified CBS, 4 mM Hcys, 4 mM Cys, 50 mM Tris-HCl pH 8.6 (Table S2), read-out: IC50 hCBS WT
  IC50: 1200 ± 50 nM
hCBS-413; Table S2
  IC50 fold to WT, hCBS WT: 1
hCBS-413; hCBS-413, 50 mM Hepes buffer pH 7.4 instead of Tris-HCl pH 8.6, read-out: IC50 on hCBS (Hepes; pH 7.4)
  IC50: 1100 ± 170 nM
hCBS-413; standard conditions, 50 mM Tris-HCl pH 8.6, read-out: IC50 on hCBS-413
  IC50: ~1000 nM and 1000 nM
